Experiment: xn = mol fraction of the nth substance listed
Conditions: 311 K, Fluid (supercritical or subcritical phases), Pulse-echo method

CCCC [butane] + C
Conditions	speed of sound [m/s]
2068 kPa, x2 = 0.894	381.6
2758 kPa, x2 = 0.894	378.5
3447 kPa, x2 = 0.894	375.5
3930 kPa, x2 = 0.158	760.1
3999 kPa, x2 = 0.158	760.7
4137 kPa, x2 = 0.158	762.3
4137 kPa, x2 = 0.894	372.7
4826 kPa, x2 = 0.158	778.7
4826 kPa, x2 = 0.894	370.1
5516 kPa, x2 = 0.158	793.5
5516 kPa, x2 = 0.894	368
6205 kPa, x2 = 0.158	805.6
6205 kPa, x2 = 0.894	366.4
6895 kPa, x2 = 0.158	817.6
6895 kPa, x2 = 0.894	365.2
7584 kPa, x2 = 0.894	364.8
8274 kPa, x2 = 0.894	365.1
8963 kPa, x2 = 0.894	366
9653 kPa, x2 = 0.894	367.8
10342 kPa, x2 = 0.158	866
10342 kPa, x2 = 0.894	370.3
11032 kPa, x2 = 0.894	373.7
11721 kPa, x2 = 0.894	378
12411 kPa, x2 = 0.894	383.1
13100 kPa, x2 = 0.894	388.9
13128 kPa, x2 = 0.724	314.6
13148 kPa, x2 = 0.724	316.5
13231 kPa, x2 = 0.724	323.7
13307 kPa, x2 = 0.724	329.7
13472 kPa, x2 = 0.724	344
13790 kPa, x2 = 0.158	906.3
13790 kPa, x2 = 0.894	395.6
13845 kPa, x2 = 0.724	366.1
14479 kPa, x2 = 0.724	395.6
14479 kPa, x2 = 0.894	402.9
15168 kPa, x2 = 0.724	420.7
15168 kPa, x2 = 0.894	410.8
15858 kPa, x2 = 0.724	443.6
15858 kPa, x2 = 0.894	419.4
16547 kPa, x2 = 0.724	464.8
16547 kPa, x2 = 0.894	428.4
17237 kPa, x2 = 0.724	484.4
17237 kPa, x2 = 0.894	438

— the NIST ThermoML archive (doi:10.1021/je049622g)
